Article PMC11946258, “Self-Assembly, Antimicrobial Properties and Biodegradability of Ester-Functionalized Choline-Based Surface-Active Ionic Liquids” (Molecules, 2025)

Legend:
MRSA biofilms [1] = assay type: cell-based, methicillin-resistant Staphylococcus aureus; details: MRSA biofilm, MTT
Experimental: The biocidal activity of the ester-functionalized choline-based ILs on bacterial and fungal cells in biofilms was assessed by MTT cell viability assays. CnECholBr were evaluated for their potential to kill cells in pre-established biofilms of MRSA and C. albicans, two clinically relevant pathogens. Pre-formed biofilms on 48-wells plates were treated with increasing concentrations of the ester-functionalized choline-based ILs and the cell viability of the sessile cells was quantified by the MTT method. The results obtained for MRSA and C. albicans biofilms are shown in Figure 6a and Figure 6b, respectively.
(§1) Antibiofilm activity was assessed against biofilm-forming strains of methicillin-resistant Staphylococcus aureus (MRSA) ATCC 43300 and Candida albicans ATCC 90028. The biofilm inhibition and eradication capacities of ILs were evaluated against adherent bacterial biofilms grown in 96-well microtiter plates. Bacteria were grown on Tryptic soy agar at 37 °C for 24 h and the fungi on Sabouraud agar at 30 °C for 24 h. Bacteria were suspended in lysogeny broth containing glucose (1%) at 1.5 × 10^8 CFU/mL and yeasts were suspended in RPMI medium at 1.5 × 10^7 CFU/mL.
For mature biofilm formation, 200 μL of the bacterial or fungal suspension was added to each well in a 48-well microplate, and incubated for 24 h at 37 °C for bacteria and 30 °C for yeast. The wells were then washed three times with PBS and 200 µL of each test solution with different concentrations of surfactants prepared in MHB (for bacteria) or RPMI medium (for yeasts) was added to each well containing the preformed biofilm. The plates were incubated for 24 h at 30 °C. The medium was removed and the wells were then washed twice with PBS. MTT solution (200 μL) was added to each well and the plate was incubated for 4 h. The MTT was then removed and 200 μL of DMSO was added to solubilize […]. The OD value was recorded at 540 nm. Controls were performed with non-ionic liquids. Each assay was run four times and the results were averaged.

MRSA biofilms [2] = assay: MRSA mature biofilm eradication (crystal violet); assay type: cell-based, methicillin-resistant Staphylococcus aureus; details: CV staining, up to the highest tested concentration of 256 µg/mL
Experimental: The capacity of the ester-functionalised cholinium-based ILs to eradicate established MRSA biofilms was evaluated through the performance of eradication assays on microtiter plates. CV staining was applied to measure biofilm biomass.
as §1
To evaluate the effect of ionic liquids on mature biofilms, we employed a modified microtiter plate assay. We first generated mature biofilms by incubating 200 μL of diluted bacterial suspension in each well of a 96-well plate for 24 h at 37 °C. After gently washing the biofilms with PBS, we added 200 μL of ionic liquid solution at various concentrations (4–256 μg/mL, using two-fold serial dilutions) to each well and incubated for an additional 24 h at 37 °C. Following treatment, we fixed the biofilms with 150 μL methanol for 10 min. The subsequent crystal violet (CV) staining and quantification steps were performed as described in the previous biofilm formation assay (Section 3.6.1), allowing us to assess the impact of ionic liquids on established biofilms.

Candida glabrata = assay: Antifungal MIC broth microdilution; assay type: cell-based; details: Nakaseomyces glabratus, ATCC66032; Candida glabrata ATCC 66032, RPMI 1640, 24 h, 30 °C
Experimental: (§2) The antimicrobial activity of cholinium-based ILs with an ester group in the alkyl chain was evaluated against a range of representative bacteria and fungi.
(§3) The antifungal activity was evaluated against the following yeasts: Candida albicans ATCC 90028, Candida tropicalis ATCC 7349, Candida parapsilosis ATCC 22019, Candida glabrata ATCC 66032. Frozen yeast stocks were inoculated into Sabourauds’s agar (SBA) and culture plates and incubated at 35 °C for 24 h. Three to four colonies of each strain were dispersed in sterile medium, Roswell Park Memorial Institute medium (RPMI 1640 medium), to obtain dispersions with a turbidity equivalent to 0.5 on the MacFarland scale (McFarland DEN-1B Grant-bio model densitometer). Minimum fungicidal concentrations (MFC) values—the lowest concentration of an antimicrobial agent that prevents the establishment of visible microbial growth after 24 h at 30 °C—were used to determine in vitro antifungal activity. MFCs were determined using a broth microdilution assay. Serial dilutions of each IL, ranging from 512 to 2 µg/mL, were dissolved in RPMI 1640 medium and dispensed (100 µL) into the appropriate wells of a 96-well polystyrene microtiter plate. The nutrient broth starter culture of each yeast strain (100 μL) was added to achieve a final inoculum of approximately 7.5 × 10^5 CFU per mL for yeast. Nutrient broth medium without the compound was used as a growth control. The development of turbidity in an inoculated medium is a function of growth and reflects an increase in both mass and cell number. To confirm this observation, 20 μL of resazurin at 0.015% w/v was added to each well and allowed to react for approximately 2 h at 30 °C. After the incubation period, the indicator of microbial growth, i.e., a change from blue to pink, confirmed the MIC value.

Candida tropicalis = assay: Antifungal MIC broth microdilution; assay type: cell-based; details: ATCC7349; Candida tropicalis ATCC 7349, RPMI 1640, 24 h, 30 °C
Experimental: as §2, §3

Candida parasilopsis = assay: Antifungal MIC broth microdilution; assay type: cell-based; details: Candida parapsilosis ATCC 22019, RPMI 1640, 24 h, 30 °C
Experimental: as §2, §3

| SMILES | reduction in cell viability (MRSA biofilms [1]; at 32 µg/mL) | biofilm biomass removal (MRSA biofilms [2]) | MIC (Candida glabrata) | MIC (Candida tropicalis) | MIC (Candida parasilopsis) | inhibition of cell viability (MRSA biofilms [1]; concentrations ≥ 128 µg/mL) | cell viability (MRSA biofilms [1]; plateau at and above 128 µg/mL) |
| --- | --- | --- | --- | --- | --- | --- | --- |
| CCCCCCCCCCOC(=O)C[N+](C)(C)CCO [C10ECholBr] | 50% | less than 20% | > 256 µg/mL | > 256 µg/mL | > 256 µg/mL |  |  |
| CCCCCCCCCCCCOC(=O)C[N+](C)(C)CCO [C12ECholBr] |  | ≤ 60% | 32 µg/mL | > 256 µg/mL | > 256 µg/mL | > 95% |  |
| CCCCCCCCCCCCCCOC(=O)C[N+](C)(C)CCO.[Br-] [C14ECholBr, N-(2-hydroxyethyl)-N,N-dimethyl-2-oxo-2-(tetradecyloxy)ethan-1-aminium bromide] |  | ≤ 60% | > 256 µg/mL | > 256 µg/mL | > 256 µg/mL |  | around 30% |
